System: Caco-2 monolayers (efflux transport of Rhodamine 123)
Test: Inhibition Protocol: Rhodamine 123 transport across Caco-2 monolayers in the presence of TPGS analog
Type: cell-based
Conditions: relative to Rhodamine 123 alone, TPGS analog 33 μmolar
Experimental: As used herein, the term “Inhibition Protocol” or “inhibition protocol” refers to the following test. The test is carried out using Caco-2 (C2BBe1 or HTB-37) monolayers which are known to be a good in vitro model for gastrointestinal epithelial cells. The following describes the inhibition protocol: Caco-2 cells, clone C2BBe1, from passages 48-92 are used. Cells are grown to ˜90% confluent in 75 cm^2 T-flasks with Dulbecco's modified Eagle's medium (DMEM) supplemented with 10% fetal bovine serum (FBS) and 1% non-essential amino-acids. Cells are grown at a temperature of ˜37° C. in an atmosphere of ˜85% relative humidity and ˜5% CO2. Cells are seeded on top of Transwell® inserts (pore size 0.4 μm, 1.13 cm^2) at a density of ˜60,000 cells/cm^2. […]
Rhodamine 123 (RHO) transport is assessed in absorptive (apical to basolateral, Ap→BI) and secretory (BI→Ap) directions. […]
Monolayers are agitated using an orbital shaker at ˜100±20 rpm. […] To ensure integrity of the monolayers, TEER values were measured on the day of the experiment and at the end of the experiment.
Apparent permeability (Papp) was calculated according to: Papp=(dQ/dt)*(1/A)*(1/Co)
where A (cm^2) is the nominal surface area of the monolayer and C0 (μg/mL) is the RHO concentration in the donor compartment at t=0. Relative change of Papp(cm/s)was calculated according to the equation: rel. increase/decrease=|(1−Papp(TPGS)/Papp(RHO))*100|. […]

d-α-tocopheryl polyethylene glycol succinate [TPGS 1000]
% Decrease, B to A: 73.6%
% Increase, A to B: 82.5%

Reference: patent publication US20060165769A1, “Pharmaceutical formulations containing vitamin E TPGS molecules that solubilize lipophilic drugs without significant efflux inhibition, and use of such formulations” (priority 2004, published 2006)
